In one experiment the test system is Saccharomyces cerevisiae. As to the kind of experiment: Antifungal activity against Saccharomyces cerevisiae after 18 hr by broth microdilution technique. The experiment is classed as functional.
The subject of a further experiment is Klebsiella pneumoniae. As to the kind of experiment: Antibacterial activity against Klebsiella pneumoniae after 18 hr by broth microdilution technique. The experiment is classed as functional. A general note: Dilution methods test growth across graded concentrations, often in twofold steps.
The next experiment has as its system Vero. The experiment can be described thus: Cytotoxicity against Chlorocebus aethiops (African green monkey) Vero cells after 72 hr by MTT assay. The experiment is classed as cell-based. To be noted: Chlorocebus sabaeus. For orientation: Formazan colour is commonly taken as a measure of viable cells.
The test system of a further experiment is A549. As to the kind of experiment: Cytotoxicity against Homo sapiens (human) A549 cells after 72 hr by MTT assay. The experiment is classed as cell-based. The settings on record: A549, 72 h.
Experiment [1] deals with Mycobacterium tuberculosis. As to the kind of experiment: Antimycobacterial activity against Mycobacterium tuberculosis H37Rv after 21 days by broth dilution method. The settings on record: 504 h. In kind it is functional.
The subject of another experiment is Bacillus subtilis. As to the kind of experiment: Antibacterial activity against Bacillus subtilis after 18 hr by broth microdilution technique. The experiment is classed as functional.
The subject of the next experiment is Aspergillus niger. The experiment can be described thus: Antifungal activity against Aspergillus niger after 18 hr by broth microdilution technique. In kind it is functional.
The subject of a further experiment is Escherichia coli. The experiment can be described thus: Antibacterial activity against Escherichia coli after 18 hr by broth microdilution technique. The experiment is classed as functional.
Another experiment relates to Candida tropicalis. The experiment can be described thus: Antifungal activity against Candida tropicalis after 18 hr by broth microdilution technique. In kind it is functional.
For the next experiment, the system named is Pseudomonas aeruginosa. The experiment can be described thus: Antibacterial activity against Pseudomonas aeruginosa after 18 hr by broth microdilution technique. In kind it is functional.
A further experiment deals with Enterococcus faecalis. The experiment can be described thus: Antibacterial activity against Enterococcus faecalis after 18 hr by broth microdilution technique. The experiment is classed as functional.
A further experiment relates to Staphylococcus aureus. The experiment can be described thus: Antibacterial activity against Staphylococcus aureus after 18 hr by broth microdilution technique. In kind it is functional.

SMILES strings stand for the structures. In brackets after ≈: the same amount, converted by molar mass. Bounds are passed on as bounds.

By MIC is commonly meant the smallest concentration in the dilution series that meets the test's criterion for growth inhibition. The low end stands for a more susceptible organism, the high end for a less susceptible organism. As usually defined, the IC50 is the concentration that inhibits the measured activity by half. The low end stands for greater potency, the high end for weaker potency. Take `CC(=O)N1N=C(c2ccc(-n3c(C)ccc3C)cc2)OC1c1ccc(N(C)C)cc1` (stereo not drawn): the MIC in the experiment on Saccharomyces cerevisiae was found to be 31.2 µg/mL (≈ 77.6 µM); with Klebsiella pneumoniae, 31.2 µg/mL (≈ 77.6 µM); in [1] it was 16 µg/mL (≈ 39.8 µM); in the experiment with Bacillus subtilis it was 16 µg/mL (≈ 39.8 µM); with Aspergillus niger, 31.2 µg/mL (≈ 77.6 µM); against Escherichia coli, 500 µg/mL (≈ 1240 µM). Moreover, the MIC in the experiment with Candida tropicalis was 31.2 µg/mL (≈ 77.6 µM); in the experiment on Pseudomonas aeruginosa, 500 µg/mL (≈ 1240 µM); against Enterococcus faecalis, 31.2 µg/mL (≈ 77.6 µM); with Staphylococcus aureus, 31.2 µg/mL (≈ 77.6 µM). Further, the results for the IC50 in the experiment with Vero and in the experiment on A549 were 175 µM and 186 µM, respectively.

As for `Cc1ccc(C)n1NC(=O)c1ccc(-n2c(C)ccc2C)cc1`, the MIC in the experiment with Saccharomyces cerevisiae stood at 16 µg/mL (≈ 52 µM); in the experiment on Klebsiella pneumoniae it was 62.5 µg/mL (≈ 203 µM); in experiment [1], 2 µg/mL (≈ 6.51 µM); in the experiment on Bacillus subtilis, 16 µg/mL (≈ 52 µM); against Aspergillus niger, 16 µg/mL (≈ 52 µM); with Escherichia coli, 500 µg/mL (≈ 1630 µM). In addition, the minimum inhibitory concentration (MIC) in the experiment with Candida tropicalis is 4 µg/mL (≈ 13 µM); with Pseudomonas aeruginosa, 500 µg/mL (≈ 1630 µM); against Enterococcus faecalis, 16 µg/mL (≈ 52 µM); against Staphylococcus aureus it was 2 µg/mL (≈ 6.51 µM). Also, the figures for the IC50 in the experiment with Vero and with A549 were 230 µM and 225 µM, respectively.

As to `O=C(NNC(=O)c1ccc(-n2cccc2)cc1)c1ccccc1`, the minimal inhibitory concentration (MIC) was 31.2 µg/mL (≈ 102 µM) against Saccharomyces cerevisiae; above 500 µg/mL in the experiment on Klebsiella pneumoniae; 8 µg/mL (≈ 26.2 µM) in [1]; 16 µg/mL (≈ 52.4 µM) in the experiment on Bacillus subtilis; 31.2 µg/mL (≈ 102 µM) against Aspergillus niger; 31.2 µg/mL (≈ 102 µM) in the experiment on Escherichia coli. For the same molecule, the MIC came to 31.2 µg/mL (≈ 102 µM) against Candida tropicalis, 62.5 µg/mL (≈ 205 µM) against Pseudomonas aeruginosa, 62.5 µg/mL (≈ 205 µM) with Enterococcus faecalis and 62.5 µg/mL (≈ 205 µM) in the experiment with Staphylococcus aureus. Moreover, the IC50 in the experiment with Vero turned out to be 200 µM; in the experiment on A549 it was 215 µM.

Regarding `O=C(NNC(=O)c1ccccc1Br)c1ccc(-n2cccc2)cc1`, the MIC is 31.2 µg/mL (≈ 81.3 µM) with Saccharomyces cerevisiae; above 500 µg/mL with Klebsiella pneumoniae; 8 µg/mL (≈ 20.8 µM) in experiment [1]; 16 µg/mL (≈ 41.6 µM) against Bacillus subtilis; 16 µg/mL (≈ 41.6 µM) with Aspergillus niger; 16 µg/mL (≈ 41.6 µM) in the experiment with Escherichia coli. Moreover, the MIC was determined as 8 µg/mL (≈ 20.8 µM) with Candida tropicalis, 16 µg/mL (≈ 41.6 µM) against Pseudomonas aeruginosa, 62.5 µg/mL (≈ 163 µM) against Enterococcus faecalis and 62.5 µg/mL (≈ 163 µM) with Staphylococcus aureus. In addition, the concentration for half-maximal inhibition (IC50) in the experiment with Vero was found to be 198 µM; with A549 it was 201 µM.

`O=C(NNC(=O)c1ccc(-n2cccc2)cc1)c1ccc(Br)cc1`: the MIC in the experiment with Saccharomyces cerevisiae is 31.2 µg/mL (≈ 81.3 µM); against Klebsiella pneumoniae, above 500 µg/mL; in experiment [1] it was 8 µg/mL (≈ 20.8 µM); against Bacillus subtilis, 16 µg/mL (≈ 41.6 µM); against Aspergillus niger, 16 µg/mL (≈ 41.6 µM); against Escherichia coli, 16 µg/mL (≈ 41.6 µM). In addition, the MIC against Candida tropicalis is 8 µg/mL (≈ 20.8 µM); against Pseudomonas aeruginosa, 16 µg/mL (≈ 41.6 µM); in the experiment on Enterococcus faecalis, 31.2 µg/mL (≈ 81.3 µM); in the experiment with Staphylococcus aureus, 62.5 µg/mL (≈ 163 µM). Moreover, the IC50 in the experiment on Vero came out at 186 µM; in the experiment on A549, 201 µM.

As for `O=C(NNC(=O)c1ccccc1[N+](=O)[O-])c1ccc(-n2cccc2)cc1`, the MIC against Saccharomyces cerevisiae is 31.2 µg/mL (≈ 89.2 µM); in the experiment on Klebsiella pneumoniae, above 500 µg/mL; in [1], 8 µg/mL (≈ 22.8 µM); in the experiment with Bacillus subtilis, 16 µg/mL (≈ 45.7 µM); against Aspergillus niger, 31.2 µg/mL (≈ 89.2 µM); in the experiment with Escherichia coli it was 31.2 µg/mL (≈ 89.2 µM). Besides, the MIC in the experiment on Candida tropicalis stood at 31.2 µg/mL (≈ 89.2 µM); against Pseudomonas aeruginosa, 16 µg/mL (≈ 45.7 µM); against Enterococcus faecalis it was 31.2 µg/mL (≈ 89.2 µM); against Staphylococcus aureus, 62.5 µg/mL (≈ 178 µM). In addition, the IC50 in the experiment on Vero came to 182 µM; with A549, 205 µM.

With `O=C(NNC(=O)c1cccc([N+](=O)[O-])c1)c1ccc(-n2cccc2)cc1`, the MIC is 31.2 µg/mL (≈ 89.2 µM) against Saccharomyces cerevisiae; above 500 µg/mL in the experiment with Klebsiella pneumoniae; 8 µg/mL (≈ 22.8 µM) in experiment [1]; 16 µg/mL (≈ 45.7 µM) with Bacillus subtilis; 31.2 µg/mL (≈ 89.2 µM) against Aspergillus niger; 16 µg/mL (≈ 45.7 µM) with Escherichia coli. Moreover, the MIC with Candida tropicalis is 31.2 µg/mL (≈ 89.2 µM); against Pseudomonas aeruginosa, 16 µg/mL (≈ 45.7 µM); in the experiment with Enterococcus faecalis it was 62.5 µg/mL (≈ 178 µM); with Staphylococcus aureus, 62.5 µg/mL (≈ 178 µM). The IC50 in the experiment on Vero came out at 195 µM; with A549, 203 µM.

With `O=C(NNC(=O)c1ccc([N+](=O)[O-])cc1)c1ccc(-n2cccc2)cc1`, the MIC in the experiment on Saccharomyces cerevisiae is 31.2 µg/mL (≈ 89.2 µM); with Klebsiella pneumoniae, above 500 µg/mL; in experiment [1] it was 8 µg/mL (≈ 22.8 µM); in the experiment with Bacillus subtilis, 16 µg/mL (≈ 45.7 µM); in the experiment with Aspergillus niger, 31.2 µg/mL (≈ 89.2 µM); against Escherichia coli, 16 µg/mL (≈ 45.7 µM). Also, the MIC stood at 31.2 µg/mL (≈ 89.2 µM) against Candida tropicalis, 16 µg/mL (≈ 45.7 µM) against Pseudomonas aeruginosa, 31.2 µg/mL (≈ 89.2 µM) with Enterococcus faecalis and 62.5 µg/mL (≈ 178 µM) against Staphylococcus aureus. Moreover, the IC50 in the experiment on Vero was 190 µM; in the experiment with A549, 198 µM.

Take `O=C(NNC(=O)c1ccc(-n2cccc2)cc1)c1ccc(Cl)cc1`: the MIC in the experiment with Saccharomyces cerevisiae was 31.2 µg/mL (≈ 92 µM); in the experiment on Klebsiella pneumoniae, above 500 µg/mL; in [1], 8 µg/mL (≈ 23.5 µM); against Bacillus subtilis it was 16 µg/mL (≈ 47.1 µM); against Aspergillus niger, 31.2 µg/mL (≈ 92 µM); in the experiment with Escherichia coli, 16 µg/mL (≈ 47.1 µM). For the same molecule, the MIC turned out to be 8 µg/mL (≈ 23.5 µM) in the experiment on Candida tropicalis, 16 µg/mL (≈ 47.1 µM) in the experiment on Pseudomonas aeruginosa, 31.2 µg/mL (≈ 92 µM) with Enterococcus faecalis and 62.5 µg/mL (≈ 184 µM) with Staphylococcus aureus. The IC50 was determined as 179 µM in the experiment with Vero and 185 µM in the experiment with A549.

The values are drawn from ChEMBL document CHEMBL3046206, “Synthesis of new 4-(2,5-dimethylpyrrol-1-yl)/4-pyrrol-1-yl benzoic acid hydrazide analogs and some derived oxadiazole, triazole and pyrrole ring systems: a novel class of potential antibacterial, antifungal and antitubercular agents” (Med Chem Res, 2013).
